Results reported in patent publication US11000487B2, “Compositions and methods for the treatment of chronic pain” (CELLIX BIO PRIVATE LIMITED, priority 2016, dated 2021).
Values after ≈ are worked out from the molar mass of the structure shown. Read-outs that look alike come from different tables or passages of the source.

Key:
[1] = comparison among long-chain fatty acids; cited from earlier work
[2] = system: oral pathogenic microorganisms; settings: n-6 fatty acids GLA; cited from earlier work
C. albicans = settings: cited from earlier work
Candida Species [3] = settings: cited from earlier work
Candida Species [4] = experiment: minimum inhibitory concentration against Candida; type: cell-based; settings: conversion of 0.45 μmoles/ml

| Compound | antimicrobial activity among the long-chain fatty acids [1] | bactericidal concentration [2] [µg/mL] | activity against C. albicans (C. albicans) [%] | MIC (Candida Species [3]) [µM] | MIC (Candida Species [4]) [mg/L] |
| --- | --- | --- | --- | --- | --- |
| CCCCCCCCCCCCCCCC(=O)O [palmitic acid] | greatest antimicrobial activity |  |  |  |  |
| CCCCCC/C=C\CCCCCCCC(=O)O [palmitoleic acid] | greatest antimicrobial activity |  |  |  |  |
| CCCCC/C=C\C/C=C\C/C=C\CCCCC(=O)O [GLA, gamma linoleic acid] | greatest antimicrobial activity | 25 |  |  |  |
| CCCCC/C=C\C/C=C\C/C=C\C/C=C\CCCC(=O)O [arachidonic acid] | greatest antimicrobial activity |  |  |  |  |
| CCCCC/C=C\C/C=C\CCCCCCCC(=O)O [linoleic acid] | greatest antimicrobial activity |  | < 40 | 450 (≈ 126 µg/mL) | 0.13 (≈ 0.464 µM) |
